Species on record: Rattus norvegicus
Test: DrugMatrix - Regimen: Daily Repeat
Type: toxicity, organism-based, Sprague-Dawley
Set-up: regimen Daily Repeat, gender Male, age 6-8 weeks
Settings: in vivo, po, […], route oral GAVAGE; for ABSOLUTE BASOPHIL / ABSOLUTE EOSINOPHIL / ABSOLUTE LYMPHOCYTE / ABSOLUTE MONOCYTE / ABSOLUTE SEGMENTED NEUTROPHIL / BASOPHIL / EOSINOPHIL / ERYTHROCYTE COUNT / HEMATOCRIT / HEMOGLOBIN / LEUKOCYTE COUNT / LYMPHOCYTE / MEAN CORPUSCULAR HEMOGLOBIN / MEAN CORPUSCULAR HEMOGLOBIN CONCENTRATION / MEAN CORPUSCULAR VOLUME / MONOCYTE / NEUTROPHIL / NUCLEATED RED BLOOD CELLS / PLATELET COUNT: tissue Blood; for ALANINE AMINOTRANSFERASE / ALKALINE PHOSPHATASE / ASPARTATE AMINOTRANSFERASE / BLOOD UREA NITROGEN / CARBON DIOXIDE / CHLORIDE / CHOLESTEROL / CREATINE PHOSPHOKINASE / CREATININE / GLUCOSE / LACTATE DEHYDROGENASE / LIPASE / PHOSPHORUS / POTASSIUM / SODIUM / TOTAL BILIRUBIN / TOTAL PROTEIN / URIC ACID: tissue Plasma
[1] = 100 mg/kg, dose level Low, time 7 day
[2] = 700 mg/kg, 72 h, dose level High, time 3 day
[3] = 700 mg/kg, dose level High, time 7 day

## Cc1ccc(C)c(OCCCC(C)(C)C(=O)O)c1 [GEMFIBROZIL]
[1]
  ABSOLUTE BASOPHIL: 0 CELLS/uL
  ABSOLUTE EOSINOPHIL: 45.5 CELLS/uL
  ABSOLUTE LYMPHOCYTE: 9460.33 CELLS/uL
  ABSOLUTE MONOCYTE: 128.67 CELLS/uL
  ABSOLUTE SEGMENTED NEUTROPHIL: 965.5 CELLS/uL
  BASOPHIL: 0%
  EOSINOPHIL: 0.5%
  ERYTHROCYTE COUNT: 5.75 x10E6/uL
  HEMATOCRIT: 35.7%
  HEMOGLOBIN: 13.7 G/DL
  LEUKOCYTE COUNT: 10.6 x10E3/uL
  LYMPHOCYTE: 89.83%
  MEAN CORPUSCULAR HEMOGLOBIN: 23.82 pg
  MEAN CORPUSCULAR HEMOGLOBIN CONCENTRATION: 38.42 G/DL
  MEAN CORPUSCULAR VOLUME: 62.1 fL
  MONOCYTE: 1.17%
  NEUTROPHIL: 8.5%
  NUCLEATED RED BLOOD CELLS: 0 /100WBC
  PLATELET COUNT: 1237.17 x10E3/uL
  ALANINE AMINOTRANSFERASE: 75.17 u/L
  ALKALINE PHOSPHATASE: 388.67 u/L
  ASPARTATE AMINOTRANSFERASE: 80.67 u/L
  BLOOD UREA NITROGEN: 15.5 mg/dL
  CARBON DIOXIDE: 29.17 mmol/L
  CHLORIDE: 103.5 MEQ/L
  CHOLESTEROL: 70.33 mg/dL
  CREATINE PHOSPHOKINASE: 220 u/L
  CREATININE: 0.26 mg/dL
  GLUCOSE: 138.5 mg/dL
  LACTATE DEHYDROGENASE: 151.33 u/L
  LIPASE: 11.5 u/L
  PHOSPHORUS: 10.83 mg/dL
  POTASSIUM: 6.07 MEQ/L
  SODIUM: 145.42 MEQ/L
  TOTAL BILIRUBIN: 0.15 mg/dL
  TOTAL PROTEIN: 6.55 G/DL
  URIC ACID: 0.9 mg/dL
[2]
  ABSOLUTE BASOPHIL: 0 CELLS/uL
  ABSOLUTE EOSINOPHIL: 123.83 CELLS/uL
  ABSOLUTE LYMPHOCYTE: 14360.17 CELLS/uL
  ABSOLUTE MONOCYTE: 300 CELLS/uL
  ABSOLUTE SEGMENTED NEUTROPHIL: 899.33 CELLS/uL
  BASOPHIL: 0%
  EOSINOPHIL: 0.83%
  ERYTHROCYTE COUNT: 5.5 x10E6/uL
  HEMATOCRIT: 34.9%
  HEMOGLOBIN: 13.82 G/DL
  LEUKOCYTE COUNT: 15.68 x10E3/uL
  LYMPHOCYTE: 91.67%
  MEAN CORPUSCULAR HEMOGLOBIN: 25.13 pg
  MEAN CORPUSCULAR HEMOGLOBIN CONCENTRATION: 39.6 G/DL
  MEAN CORPUSCULAR VOLUME: 63.5 fL
  MONOCYTE: 1.83%
  NEUTROPHIL: 5.67%
  NUCLEATED RED BLOOD CELLS: 0 /100WBC
  PLATELET COUNT: 1197.17 x10E3/uL
  ALANINE AMINOTRANSFERASE: 74.67 u/L
  ALKALINE PHOSPHATASE: 606 u/L
  ASPARTATE AMINOTRANSFERASE: 80.5 u/L
  BLOOD UREA NITROGEN: 11.33 mg/dL
  CARBON DIOXIDE: 30.67 mmol/L
  CHLORIDE: 101.5 MEQ/L
  CHOLESTEROL: 61 mg/dL
  CREATINE PHOSPHOKINASE: 247.5 u/L
  CREATININE: 0.21 mg/dL
  GLUCOSE: 143.5 mg/dL
  LACTATE DEHYDROGENASE: 254.17 u/L
  LIPASE: 9.67 u/L
  PHOSPHORUS: 8.5 mg/dL
  POTASSIUM: 6.29 MEQ/L
  SODIUM: 141.78 MEQ/L
  TOTAL BILIRUBIN: 0.32 mg/dL
  TOTAL PROTEIN: 5.85 G/DL
  URIC ACID: 1.33 mg/dL
[3]
  ABSOLUTE BASOPHIL: 0 CELLS/uL
  ABSOLUTE EOSINOPHIL: 34.5 CELLS/uL
  ABSOLUTE LYMPHOCYTE: 11212.67 CELLS/uL
  ABSOLUTE MONOCYTE: 304.17 CELLS/uL
  ABSOLUTE SEGMENTED NEUTROPHIL: 1732 CELLS/uL
  BASOPHIL: 0%
  EOSINOPHIL: 0.5%
  ERYTHROCYTE COUNT: 5.46 x10E6/uL
  HEMATOCRIT: 32.9%
  HEMOGLOBIN: 12.75 G/DL
  LEUKOCYTE COUNT: 13.28 x10E3/uL
  LYMPHOCYTE: 85.5%
  MEAN CORPUSCULAR HEMOGLOBIN: 23.43 pg
  MEAN CORPUSCULAR HEMOGLOBIN CONCENTRATION: 38.82 G/DL
  MEAN CORPUSCULAR VOLUME: 60.37 fL
  MONOCYTE: 2.17%
  NEUTROPHIL: 11.83%
  NUCLEATED RED BLOOD CELLS: 0 /100WBC
  PLATELET COUNT: 1336.17 x10E3/uL
  ALANINE AMINOTRANSFERASE: 90.83 u/L
  ALKALINE PHOSPHATASE: 504.17 u/L
  ASPARTATE AMINOTRANSFERASE: 94.83 u/L
  BLOOD UREA NITROGEN: 12.17 mg/dL
  CARBON DIOXIDE: 31.17 mmol/L
  CHLORIDE: 101.17 MEQ/L
  CHOLESTEROL: 60.5 mg/dL
  CREATINE PHOSPHOKINASE: 391.67 u/L
  CREATININE: 0.29 mg/dL
  GLUCOSE: 135.67 mg/dL
  LACTATE DEHYDROGENASE: 275.5 u/L
  LIPASE: 12 u/L
  PHOSPHORUS: 9.5 mg/dL
  POTASSIUM: 5.98 MEQ/L
  SODIUM: 142.85 MEQ/L
  TOTAL BILIRUBIN: 0.22 mg/dL
  TOTAL PROTEIN: 6.58 G/DL
  URIC ACID: 0.87 mg/dL

From ChEMBL document CHEMBL3885881, “DrugMatrix”
